Where two headings read alike, the source gives them in different places.
Test system: HCV replicon RNA in human hepatoma Huh7 cells (cell line 2209-23)
Test: HCV Replicon assay (Renilla luciferase reporter, 2209-23 cells)
Type: cell-based, Hepatitis C virus
Conditions: for IC50: Hepatitis C virus, Huh-7, 72 h, read-out: IC50 (HCV Replicon assay)

## Nc1nc(N)c2ncn([C@@H]3O[C@H](CO)[C@@H](O)[C@H]3F)c2n1 [9-(2-Deoxy-2-fluoro-β-D-ribofuranosyl)-2,6-diaminopurine]
  IC50: 10 µM

## Nc1nc2c(ncn2[C@@H]2O[C@H](CO)[C@@H](O)[C@H]2F)c(=O)[nH]1 [2′-Deoxy-2′-fluoroguanosine]
@ 20 μM, Renilla luciferase HCV replicon cells 2209-23
  % reduction of replicon level at fixed concentration: 62% @ 20

## Nc1ccn([C@@H]2O[C@H](CO)[C@@H](O)[C@H]2F)c(=O)n1 [2′-Deoxy-2′-fluorocytidine]
Renilla luciferase HCV replicon cells 2209-23, three days incubation
  IC50: 0.74 µM

Reference: patent US6660721B2, “Anti-HCV nucleoside derivatives” (Hoffmann-la Roche Inc., priority 2001, dated 2003)
